Patent publication US5750754A, “Heterocyclic compounds” (Zeneca Limited, priority 1993, dated 1998)
Where a name gives a salt, the structure may show the parent alone.

Experiments:
[1] = target: T1, human, citrated, platelet-rich plasma (Homo sapiens, UniProt P05106+P08514); experiment: Test (a): inhibition of ADP stimulated platelet aggregation (Born); type: cell-based; conditions: ADP induced aggregation of human platelet-rich plasma; for Kb: read-out: Test (a): pA2 value indicating potency of platelet aggregation inhibition (converted)
T1 construct: aggregating human, citrated, platelet-rich plasma; endogenous in cells; host or cells: human platelets in citrated platelet-rich plasma
T1 sequence (P08514 32-887 limits assumed): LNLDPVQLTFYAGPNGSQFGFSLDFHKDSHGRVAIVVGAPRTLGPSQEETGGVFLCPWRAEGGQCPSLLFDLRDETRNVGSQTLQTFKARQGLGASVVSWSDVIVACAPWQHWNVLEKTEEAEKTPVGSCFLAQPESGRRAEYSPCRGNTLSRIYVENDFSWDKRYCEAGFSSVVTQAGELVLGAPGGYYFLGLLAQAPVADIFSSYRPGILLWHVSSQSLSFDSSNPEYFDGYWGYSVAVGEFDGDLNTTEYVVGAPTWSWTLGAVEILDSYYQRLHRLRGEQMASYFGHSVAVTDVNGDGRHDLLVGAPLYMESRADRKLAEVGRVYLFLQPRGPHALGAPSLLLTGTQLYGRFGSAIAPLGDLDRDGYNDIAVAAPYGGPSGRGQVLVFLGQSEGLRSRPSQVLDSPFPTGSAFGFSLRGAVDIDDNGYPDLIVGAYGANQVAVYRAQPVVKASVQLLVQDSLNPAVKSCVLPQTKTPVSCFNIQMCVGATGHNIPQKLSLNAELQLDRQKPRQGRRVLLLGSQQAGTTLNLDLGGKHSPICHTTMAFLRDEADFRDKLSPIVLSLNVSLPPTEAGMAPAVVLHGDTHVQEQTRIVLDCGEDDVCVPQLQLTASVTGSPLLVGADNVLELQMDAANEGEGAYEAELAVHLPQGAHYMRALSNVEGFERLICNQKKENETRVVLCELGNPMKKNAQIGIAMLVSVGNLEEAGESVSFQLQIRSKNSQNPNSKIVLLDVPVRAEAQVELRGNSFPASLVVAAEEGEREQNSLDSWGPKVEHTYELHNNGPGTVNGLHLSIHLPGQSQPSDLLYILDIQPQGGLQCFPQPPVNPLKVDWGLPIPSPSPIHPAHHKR
T1 sequence (P08514 891-1039 limits assumed): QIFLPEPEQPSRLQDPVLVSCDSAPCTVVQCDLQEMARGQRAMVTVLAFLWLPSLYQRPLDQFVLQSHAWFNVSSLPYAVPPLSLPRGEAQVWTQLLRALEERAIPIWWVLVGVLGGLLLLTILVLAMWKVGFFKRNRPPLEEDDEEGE
T1 sequence (P05106 27-788): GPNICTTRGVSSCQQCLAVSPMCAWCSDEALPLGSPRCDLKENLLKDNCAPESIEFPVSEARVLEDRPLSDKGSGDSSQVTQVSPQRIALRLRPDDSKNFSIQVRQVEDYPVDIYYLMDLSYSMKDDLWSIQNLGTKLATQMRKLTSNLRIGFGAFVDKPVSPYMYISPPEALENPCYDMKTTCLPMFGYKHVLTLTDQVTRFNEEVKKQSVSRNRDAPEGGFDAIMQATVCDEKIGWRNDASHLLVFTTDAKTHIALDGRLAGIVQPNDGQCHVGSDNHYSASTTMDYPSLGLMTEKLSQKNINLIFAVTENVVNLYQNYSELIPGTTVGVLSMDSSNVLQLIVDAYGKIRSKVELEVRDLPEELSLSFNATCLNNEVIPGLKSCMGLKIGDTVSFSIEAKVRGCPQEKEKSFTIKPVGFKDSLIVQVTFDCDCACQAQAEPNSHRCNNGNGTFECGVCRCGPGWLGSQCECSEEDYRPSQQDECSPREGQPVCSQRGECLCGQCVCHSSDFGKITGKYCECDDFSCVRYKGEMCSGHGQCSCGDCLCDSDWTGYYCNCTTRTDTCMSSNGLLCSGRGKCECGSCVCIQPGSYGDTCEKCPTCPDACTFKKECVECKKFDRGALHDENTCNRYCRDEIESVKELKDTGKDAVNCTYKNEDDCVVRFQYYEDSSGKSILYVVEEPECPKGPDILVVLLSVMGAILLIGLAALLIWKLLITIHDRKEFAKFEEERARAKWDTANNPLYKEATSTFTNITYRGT
Method in brief: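 pA2 calculated by comparing ADP EC50-type (50% response) values in presence and absence of compound, averaged across concentrations (generally 10-^5 M to 10-^10 M). Aggregation (Born) induced by ADP in citrated human platelet-rich plasma, giving dose-response curves.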

[2] = target: T2, purified human platelet fibrinogen receptor (GPIIb/IIIa) (Homo sapiens, UniProt P05106+P08514); experiment: Test (b): GPIIb/IIIa ELISA, inhibition of biotinylated fibrinogen binding; conditions: for IC50: read-out: Test (b): pIC50 (-log(IC50)), 50% inhibition of biotinylated fibrinogen binding to GPIIb/IIIa (converted)
T2 construct: is isolated from human platelet lysates; from tissue
T2 sequence (P08514 32-887 limits assumed): as the sequence (P08514 32-887 limits assumed) above
T2 sequence (P08514 891-1039 limits assumed): as the sequence (P08514 891-1039 limits assumed) above
T2 sequence (P05106 27-788): as the sequence (P05106 27-788) above
Method in brief: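 Inhibition of biotinylated fibrinogen ([…]) binding to immobilised human platelet fibrinogen receptor, purified by KYGRGDS peptide affinity chromatography, was measured after 2 h at 30 °C. Readout: streptavidin–biotin-HRP colour with TMB at […]; value expressed as pIC50.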

[3] = tested on: Alderley Park Wistar rats; experiment: Repeated oral dose study in the rat (liver effects, tolerability); type: in vivo
Method: The following is a description of a study of the effects of the (-)-(3R) compound of Example 246 and the corresponding (3RS)-racemic mixture of Example 203 in the rat. Four groups of ten Alderley Park Wistar rats (each group comprising 5 male and 5 female rats) were dose orally with the (3RS)-racemic mixture of Example 203 at daily doses of 0, 25, 100 or 500 mg/kg. Dosing was continued for a total of seven days. The animals were killed and examined.
Four groups of ten Alderley Park Wistar rats (each group comprising 5 male and 5 female rats) were dosed orally with the (-)-(3R) compound of Example 246 at daily doses of 0, 50, 250 and 1000 mg/kg. The highest dose was not tolerated. After four or five days, four of the animals from this group were killed. The remaining six animals were dosed at 500 mg/kg/day for the remainder of the study. Dosing was continued for a total of fourteen days. The animals were killed and examined.

[4] = tested on: aggregation of human blood platelets; experiment: Test (a) modified to assess activity on oral administration (ex vivo); type: in vivo, dog; conditions: dogs, 5 mg/kg
Method: Test (a) may be modified so as to assess the effects of a test compound ex vivo on the aggregation of human blood platelets after administration of the test compound to a laboratory animal, such as a rat, rabbit, guinea pig, mouse or dog. For example, groups of four male, fasted Alderley Park Wistar rats are orally dosed with a test compound or appropriate vehicle, and at suitable time intervals (1,3,5 and 8 hours after dosing) animals are anaesthetised with fluothane and bled by heart puncture. Blood is collected into 3.2% citrate (1 part to 9 parts whole blood) and platelet poor plasma (ppp) prepared by centrifugation (4500×g for 10 min). […]
Equal volumes (125 μl) of rat ppp and human prp are mixed together, ADP added, and the whole incubated (37° C.) and stirred (900 rpm) in a BioData platelet aggregometer. Aggregation is induced with ADP and agonist EC50 values calculated for human prp/rat ppp mixtures from animals dosed with test compound or vehicle. A mean concentration ratio (concentration of ADP required to cause a 50% aggregation response in human prp/rat ppp mixtures from animals dosed with antagonist, divided by the concentration of ADP to cause 50% aggregation in human prp/rat ppp mixtures from animals dosed with vehicle) is calculated at each time point.

αv β3 = αv β3 (Homo sapiens, UniProt P05106+P06756); experiment: Binding of αv β3 to vitronectin; conditions: read-out: pIC50, binding of αv β3 to vitronectin (converted)
Sequence of αv β3 (P06756 31-889 limits assumed): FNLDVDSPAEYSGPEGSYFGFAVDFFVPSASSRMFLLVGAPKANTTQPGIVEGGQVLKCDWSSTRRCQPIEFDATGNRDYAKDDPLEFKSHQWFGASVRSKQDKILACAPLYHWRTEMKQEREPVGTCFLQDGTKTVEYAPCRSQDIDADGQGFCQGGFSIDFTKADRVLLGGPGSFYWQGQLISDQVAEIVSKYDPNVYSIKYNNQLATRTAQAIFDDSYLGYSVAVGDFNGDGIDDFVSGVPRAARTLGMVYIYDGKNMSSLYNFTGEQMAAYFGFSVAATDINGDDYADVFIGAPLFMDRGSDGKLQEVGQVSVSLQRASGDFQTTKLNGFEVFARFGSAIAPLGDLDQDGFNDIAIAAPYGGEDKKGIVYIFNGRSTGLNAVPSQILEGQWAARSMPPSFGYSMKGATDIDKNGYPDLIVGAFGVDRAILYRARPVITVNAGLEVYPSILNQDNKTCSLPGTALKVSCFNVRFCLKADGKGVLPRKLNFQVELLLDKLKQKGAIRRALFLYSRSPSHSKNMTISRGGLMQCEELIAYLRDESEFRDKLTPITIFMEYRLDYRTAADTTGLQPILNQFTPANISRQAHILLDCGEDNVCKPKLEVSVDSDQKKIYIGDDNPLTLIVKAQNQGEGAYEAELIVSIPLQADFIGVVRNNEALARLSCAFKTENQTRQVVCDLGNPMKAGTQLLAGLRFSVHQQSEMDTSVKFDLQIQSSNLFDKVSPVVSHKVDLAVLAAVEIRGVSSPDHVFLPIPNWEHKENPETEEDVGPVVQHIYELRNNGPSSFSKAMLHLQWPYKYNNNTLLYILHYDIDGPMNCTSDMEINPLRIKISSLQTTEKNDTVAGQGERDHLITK
Sequence of αv β3 (P06756 891-1048 limits assumed): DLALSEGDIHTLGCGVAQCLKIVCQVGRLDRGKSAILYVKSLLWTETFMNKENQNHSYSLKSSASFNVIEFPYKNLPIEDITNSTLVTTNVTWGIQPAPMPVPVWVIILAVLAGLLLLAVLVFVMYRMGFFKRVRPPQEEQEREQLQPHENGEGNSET
Sequence of αv β3 (P05106 27-788): as the sequence (P05106 27-788) above

αv β1 = experiment: Binding of αv β1 to fibronectin
[5] = purified human platelet GPIIb/IIIa, ELISA

| Kb [1] [nM] | IC50 [2, 5] [nM] | SMILES | other results |
| --- | --- | --- | --- |
|  |  | CC(COc1ccc(N2CCN(c3ccncc3)CC2)cc1)CC(=O)O (racemic) [Example 203, RS 3-Methyl-4-[4-[4-(4-pyridyl)piperazin-1-yl]phenoxy]butyric acid trifluoroacetate] | Test (a): pA2 value indicating potency of platelet aggregation inhibition [1]: 7.2; Test (b): pIC50 (-log(IC50)), 50% inhibition of biotinylated fibrinogen binding to GPIIb/IIIa [2, 5]: 8; adverse effects in the liver ([3]; rat, oral, 500 mg/kg/day, seven days): Adverse effects were noted in the livers of six of the group of ten rats |
| 158 to 316 | 398 to 1580 | COC(=O)COc1ccc(C(=O)CN2CCN(c3ccncc3)CC2)cc1 [Example 1, Methyl 4-[2-[4-(4-pyridyl)piperazin-1-yl]acetyl]phenoxyacetate] | duration of activity when dosed orally [4]: up to 12 hours |
| > 100000 | 251 | O=C(O)C[C@H](NC(=O)c1ccc(N2CCN(c3ccncc3)CC2)cc1)C(=O)NCCc1ccccc1 [Example 192, (S)-3-[N-[2-Phenenthyl]carboxamido]-3-[4-[4-(4-pyridyl)piperazin-1-yl]]-benzamidopropionic acid] |  |
| 39800 | 251 | O=C(O)C[C@@H](NC(=O)c1ccc(N2CCN(c3ccncc3)CC2)cc1)C(=O)NCCc1ccccc1 [Example 193] |  |
| 3980 | 126 | O=C(O)C[C@H](NC(=O)CNC(=O)CN1CCN(c2ccncc2)CC1)C(=O)NCCc1ccccc1 [Example 194, (S)-3-[N-(2-Phenethyl)carboxamido]-3-[N-[N-2-[4-(4-pyridyl)piperazin-1-yl]acetyl]glycyl]aminopropionic acid, trifluoroacetate] |  |
| 2510 | 158 | O=C(O)CCNC(=O)CCCN1CCN(c2ccncc2)CC1 [Example 195, 3-[4-[4-(4-Pyridyl)piperazin-1-yl]butyryl]aminopropionic acid, trifluoroacetate] |  |
| 100000 | 6310 | O=C(O)CCCCN1CCN(c2ccncc2)CC1 [Example 196, 5-[(4-Pyridyl)piperazin-1-yl]pentanoic acid, dihydrochloride salt] |  |
| 63100 | 15800 | COC(=O)CCNC(=O)CCCCN1CCN(c2ccncc2)CC1 [Example 197, Methyl 3-[5-[4-(4-pyridyl)piperazine-1-yl]petanoyl]aminopropionate] |  |
| 794 | 20 | O=C(O)CCNC(=O)CCCCN1CCN(c2ccncc2)CC1 [Example 198, 3-[5-[4-(4-Pyridyl)piperazine-1-yl]pentanoyl]aminopropionic acid] |  |
| 12.6 | 3.98 | O=C(O)CCCOc1ccc(N2CCN(c3ccncc3)CC2)cc1 [Example 200, 4-[4-[4-(4-Pyridyl)piperazine-1-yl]phenoxy]butyric acid, hydrochloride salt] |  |
| 50100 | > 100000 | COCCNC(=O)CCCOc1ccc(N2CCN(c3ccncc3)CC2)cc1 [Example 201, N-2-Methoxyethyl-4-[4-[4-(4-pyridyl)piperazine-1-yl]phenoxy]butyramide, trifluoroacetate] |  |
| 251 | 10 | C=CCc1cc(N2CCN(c3ccncc3)CC2)ccc1OCCCC(=O)O [Example 206] |  |
| 316 | 1000 | CCCc1cc(N2CCN(c3ccncc3)CC2)ccc1OCCCC(=O)OCC [Example 207, Ethyl 4-[2-n-propyl-4-[4-(4-pyridyl)piperazin-1-yl]phenoxy]butyrate] |  |
| 316 | 2510 | Cc1ccc(S(=O)(=O)NCC2CCN(C(=O)CN3CCN(c4ccncc4)CC3)CC2)cc1 [Example 222, N-[1-[2-[4-(4-Pyridyl)piperazin-1-yl]acetyl]piperidin-4-ylmethyl]-4-methylphenylsulphonamide] |  |
| 1000 | 1580 | Cc1ccc(S(=O)(=O)NCCC2CCN(C(=O)CN3CCN(c4ccncc4)CC3)CC2)cc1 [Example 223, N-[2-[1-[2-[4-(4-pyridyl)piperazin-1-yl]acetyl]piperidin-4-ylethyl]-4-methylphenylsulphonamide, dihydrochloride] |  |
| 31600 | 501 | CN(C)c1ccncc1CCCOc1ccc(OCCCC(=O)O)cc1 [Example 224, 4-[4-[3-(4-dimethylaminopyrid-3-yl)propyloxy]phenoxy]butyric acid] |  |
| 20000 | 3160 | CCOC(=O)CCCOc1cccc(N2CCN(c3ccncc3)CC2)c1 [Example 226, Ethyl 3-[4-(4-pyridyl)piperazin-1-yl]phenoxybutyrate] |  |
| 2510 | 100 | O=C(O)CCCOc1cccc(N2CCN(c3ccncc3)CC2)c1 [Example 227, 3-[4-(4-Pyridyl)piperazin-1-yl]phenoxybutyric acid] |  |
| 10000 | > 100000 | CCOC(=O)CCCCOc1cccc(N2CCN(c3ccncc3)CC2)c1 [Example 228, Ethyl 3-[4-(4-pyridyl)piperazin-1-yl]phenoxypentanoate] |  |
| 3980 | 79.4 | O=C(O)CCCCOc1cccc(N2CCN(c3ccncc3)CC2)c1 [Example 229, 3-[4-(4-Pyridyl)piperazin-1-yl]phenoxypentanoic acid] |  |
| 10000 | 5010 | COC(=O)[C@H]1CC[C@H](Oc2ccc(N3CCN(c4ccncc4)CC3)cc2)CC1 [Example 230, Trans-methyl-4-[4-[4-(4-pyridyl)piperazin-1-yl]phenoxy]cyclohexyl carboxylate] |  |
| 200 | 31.6 | O=C(O)[C@H]1CC[C@H](Oc2ccc(N3CCN(c4ccncc4)CC3)cc2)CC1 [Example 231, Trans-4-[4-[4-(4-pyridyl)piperazin-1-yl]phenoxy]cyclohexane carboxylic acid] |  |
| 6310 | 501 | O=C(O)c1ccc(Oc2ccc(N3CCN(c4ccncc4)CC3)cc2)nc1 [Example 233, 6-[4-[4-(4-Pyridyl)piperazin-1yl]phenoxy]pyridine-3-carboxylic acid] |  |
| 631 | 200 | O=C(O)C1CCN(C(=O)c2ccc(N3CCN(c4ccncc4)CC3)cc2)CC1 [Example 234, 4-[(4-Pyridyl)piperazin-1-yl]benzoylisonipecotic acid] |  |
| 6310 | 200 | O=C(O)C1CCCN(C(=O)c2ccc(N3CCN(c4ccncc4)CC3)cc2)C1 (stereo not shown) [Example 235, 4-[(4-Pyridyl)piperazin-1-yl]benzoylnipecotic acid] |  |
| 794 | 31.6 | O=C(O)C1CCCC(Oc2ccc(N3CCN(c4ccncc4)CC3)cc2)C1 (stereo not shown) [Example 237, 3-[4-[4-(Pyridyl)piperazin-1-yl]phenoxy]cyclohexane carboxylic acid] |  |

| SMILES | Kb [1] [nM] | IC50 [2, 5] [nM] | other results |
| --- | --- | --- | --- |
| C[C@@H](COc1ccc(N2CCN(c3ccncc3)CC2)cc1)CC(=O)O.Cl [Example 246, (-)-(3R)-3-Methyl-4-{4-[4-(4-pyridyl)piperazin-1-yl]phenoxy}butyric acid hydrochloride] | 50.1 | 22.4 | potency as a GPIIb/IIIa antagonist relative to the corresponding (+)-(3S) isomer ([2]; versus (+)-(3S) isomer): greater than 10 fold; IC50 (αv β3): > 100000 nM; pIC50, binding of αv β1 to fibronectin (αv β1): less than 4; toxicity relative to the (3RS)-racemic mixture (by implication) ([3]; rat oral studies compared): less toxic than the (3RS)-racemic mixture of Example 203; adverse effect on the rat liver (conclusion) ([3]; rat, 500 mg/kg/day): no significant adverse effect on the rat liver; adverse effects in the liver ([3]; rat, oral, 250 mg/kg/day, fourteen days): No adverse effects were noted in the livers; tolerability of the highest dose ([3]; rat, oral, 1000 mg/kg daily): not tolerated; adverse effect on the liver ([3]; rat, oral, 1000 mg/kg/day for three or four days then 500 mg/kg/day for ten or eleven days): no adverse effect on the liver |
